Where two headings read alike, the source gives them in different places.
How the values were obtained:
[1] = target: VEGFR II (KDR) (Homo sapiens, UniProt P35968); assay: Inhibition of the KDR kinase activity (33P-ATP, poly-(Glu4Tyr) filter assay); assay type: biochemical
Description: • Stock Solutions • Stock solution A: 3 mmol of ATP in water, pH 7.0 (−70° C.) • Stock solution B: g-33P-ATP 1 mCi/100 μl • Stock solution C: poly-(Glu4Tyr) 10 mg/ml in water • Solution for Dilutions • Substrate solvent: 10 mmol of DTT, 10 mmol of manganese chloride, 100 mmol of magnesium chloride • Enzyme solution: 120 mmol of tris/HCl, pH 7.5, 10 μM of sodium vanadium oxide Sample Application 1 Inhibition of the KDR- and FLT-1 Kinase Activity in the Presence of the Compounds According to the Invention
In a microtiter plate (without protein binding) that tapers to a point, 10 μl of substrate mix (10 μl of volume of ATP stock solution A+25 μCi of g-33P-ATP (about 2.5 μl of stock solution B)+30 μl of poly-(Glu4Tyr) stock solution C+1.21 ml of substrate solvent), 10 μl of inhibitor solution (substances corresponding to the dilutions, 3% DMSO in substrate solvent as a control) and 10 μl of enzyme solution (11.25 μg of enzyme stock solution (KDR, FLT-1 or FLT-4 kinase) are added at 4° C. in 1.25 ml of enzyme solution (dilute). It is thoroughly mixed and incubated for 10 minutes at room temperature. Then, 10 μl of stop solution (250 mmol of EDTA, pH 7.0) is added, mixed, and 10 μl of the solution is transferred to a P 81 phosphocellulose filter. […] The filter paper is dried, coated with Meltilex, and measured in a microbeta counter. […]

[2] = target: T1, Cytochrome P450 isoenzyme 3A4 (Homo sapiens, UniProt P08684); assay: Cytochrome P450 inhibition (Crespi et al.); assay type: in vitro ADME; conditions: baculovirus/insect cell-expressed human isoenzyme 3A4
T1 construct: host or cells: baculovirus/insect cells
T1 sequence (P08684 whole entry): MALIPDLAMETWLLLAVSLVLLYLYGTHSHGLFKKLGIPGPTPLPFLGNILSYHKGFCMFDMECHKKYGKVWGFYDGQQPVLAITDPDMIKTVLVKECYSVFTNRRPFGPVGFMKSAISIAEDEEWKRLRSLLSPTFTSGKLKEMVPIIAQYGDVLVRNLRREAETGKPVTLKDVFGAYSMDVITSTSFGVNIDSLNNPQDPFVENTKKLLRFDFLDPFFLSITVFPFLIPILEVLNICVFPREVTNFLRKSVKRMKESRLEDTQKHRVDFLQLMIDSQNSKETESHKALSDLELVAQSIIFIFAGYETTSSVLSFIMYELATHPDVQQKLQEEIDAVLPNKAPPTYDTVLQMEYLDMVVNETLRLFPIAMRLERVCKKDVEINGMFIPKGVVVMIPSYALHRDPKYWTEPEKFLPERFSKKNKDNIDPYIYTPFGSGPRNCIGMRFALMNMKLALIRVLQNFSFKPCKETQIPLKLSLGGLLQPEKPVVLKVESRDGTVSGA
Description: Cytochrome P450 Inhibition
The Cytochrome P450 inhibition was performed according to the publication of Crespi et al. (Anal. Biochem., 248, 188–190 (1997)) with use of the baculovirus/insect cell-expressed and human Cytochrome P450 isoenzyme (3A4).

VEGFR II (KDR), sequence (P35968 20-1356, species assumed): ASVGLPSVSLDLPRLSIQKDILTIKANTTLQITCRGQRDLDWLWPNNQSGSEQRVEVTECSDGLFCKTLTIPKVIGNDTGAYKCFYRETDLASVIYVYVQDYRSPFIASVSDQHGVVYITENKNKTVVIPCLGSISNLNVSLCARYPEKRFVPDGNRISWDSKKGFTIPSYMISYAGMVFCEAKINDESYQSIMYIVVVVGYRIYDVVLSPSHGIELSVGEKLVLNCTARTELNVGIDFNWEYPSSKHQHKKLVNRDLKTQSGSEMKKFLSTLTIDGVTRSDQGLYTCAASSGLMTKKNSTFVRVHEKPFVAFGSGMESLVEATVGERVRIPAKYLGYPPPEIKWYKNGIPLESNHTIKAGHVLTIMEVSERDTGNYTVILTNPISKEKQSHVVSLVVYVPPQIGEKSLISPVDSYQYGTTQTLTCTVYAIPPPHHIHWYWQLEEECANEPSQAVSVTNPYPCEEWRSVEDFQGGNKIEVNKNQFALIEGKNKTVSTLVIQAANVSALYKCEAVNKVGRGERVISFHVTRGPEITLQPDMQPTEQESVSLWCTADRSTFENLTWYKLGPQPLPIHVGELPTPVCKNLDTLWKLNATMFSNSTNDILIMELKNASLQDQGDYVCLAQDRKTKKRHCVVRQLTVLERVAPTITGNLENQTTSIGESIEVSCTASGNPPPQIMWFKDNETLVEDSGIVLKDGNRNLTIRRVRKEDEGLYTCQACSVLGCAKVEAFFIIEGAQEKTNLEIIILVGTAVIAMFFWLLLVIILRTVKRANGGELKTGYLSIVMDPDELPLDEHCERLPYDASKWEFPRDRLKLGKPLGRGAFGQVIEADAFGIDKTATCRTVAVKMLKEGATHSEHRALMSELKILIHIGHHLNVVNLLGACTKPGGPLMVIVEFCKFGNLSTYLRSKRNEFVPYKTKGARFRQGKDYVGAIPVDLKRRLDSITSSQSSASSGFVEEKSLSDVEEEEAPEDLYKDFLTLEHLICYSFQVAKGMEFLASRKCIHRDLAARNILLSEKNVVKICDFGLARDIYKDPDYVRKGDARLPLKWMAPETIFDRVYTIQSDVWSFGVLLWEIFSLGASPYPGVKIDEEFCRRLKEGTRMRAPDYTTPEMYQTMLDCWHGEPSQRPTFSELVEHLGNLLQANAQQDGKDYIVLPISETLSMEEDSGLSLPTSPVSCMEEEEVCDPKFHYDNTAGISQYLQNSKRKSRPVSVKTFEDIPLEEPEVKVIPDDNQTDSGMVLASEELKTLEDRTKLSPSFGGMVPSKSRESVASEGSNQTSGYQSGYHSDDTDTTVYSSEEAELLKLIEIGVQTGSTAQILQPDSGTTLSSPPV

| IC50 [1] | IC50 ([2]; read-out: Inhibition of Cyp 450 3A4 (IC50)) | IC50 ([2]; heading: Inhibition of Cyp 450 3A4) | Compound |
| --- | --- | --- | --- |
| 56 nM | 5600 nM | – | O=C(Nc1ccc(OC(F)(F)F)cc1)c1ccccc1NCc1ccc(=O)[nH]c1 [Example 1.0, 2-[(6-Oxo-1,6-dihydro-pyridin-3-ylmethyl)-amino]-N-(4-trifluoromethoxy-phenyl)-benzamide] |
| 59 nM | – | 11000 nM | O=C(Nc1ccc(OCC(F)(F)F)cc1)c1ccccc1NCc1ccc(=O)[nH]c1 [Example 1.5] |

Source: patent US7202260B2, “VEGFR-2 and VEGFR-3 inhibitory anthranilamide pyridones” (Schering AG, priority 2003, dated 2007)
